{"source": "paper PMC4097363", "about": "“Trace amines inhibit insect odorant receptor function through antagonism of the co-receptor subunit” (F1000Research, 2014)", "target": "Agam\\Orco+Agam\\Or65 (Anopheles gambiae, UniProt Q7QCC7)", "sequence (Q7QCC7 whole entry)": "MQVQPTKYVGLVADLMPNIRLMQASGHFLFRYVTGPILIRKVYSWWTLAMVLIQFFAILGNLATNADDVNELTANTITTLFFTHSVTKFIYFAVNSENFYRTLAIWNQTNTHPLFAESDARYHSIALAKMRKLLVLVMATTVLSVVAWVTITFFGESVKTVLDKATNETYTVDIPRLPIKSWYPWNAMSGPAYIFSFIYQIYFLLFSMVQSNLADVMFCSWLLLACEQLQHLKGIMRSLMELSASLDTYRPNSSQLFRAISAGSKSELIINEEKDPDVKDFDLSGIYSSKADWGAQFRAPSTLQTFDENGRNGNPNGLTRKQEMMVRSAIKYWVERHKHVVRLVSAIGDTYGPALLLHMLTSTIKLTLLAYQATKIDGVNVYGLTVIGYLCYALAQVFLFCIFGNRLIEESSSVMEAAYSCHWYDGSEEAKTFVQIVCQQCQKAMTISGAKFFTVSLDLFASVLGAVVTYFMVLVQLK", "test": "Antagonism of OLC12 activation of heteromeric OR in Xenopus oocytes", "type": "cell-based", "details": "for IC50: read-out: IC 50 for inhibition of Agam\\Orco+Agam\\Or65 activation", "protocol": "Follicle cells were removed by treatment with collagenase B (Boehringer Mannheim) for 2 hours at room temperature. Capped cRNA encoding each OR subunit was generated using mMessage mMachine kits (Ambion). For heteromeric ORs, 25 ng of cRNA encoding each OR subunit was injected into Stage V-VI Xenopus oocytes. For expression of Orco homomers, 50 ng of cRNA was injected. Oocytes were incubated at 18°C in Barth's saline (in mM: 88 NaCl, 1 KCl, 2.4 NaHCO 3, 0.3 CaNO 3, 0.41 CaCl 2, 0.82 MgSO 4, 15 HEPES, pH 7.6, and 150µg/ml ceftazidime) for 2–5 days prior to electrophysiological recording.\nOdorant and Orco ligand induced currents were recorded under two-electrode voltage clamp, using an automated parallel electrophysiology system (OpusExpress 6000A, Molecular Devices). Oocytes were perfused with ND96 (in mM: 96 NaCl, 2 KCl, 1 CaCl 2, 1 MgCl 2, 5 HEPES, pH 7.5). Orco ligands were prepared as 50 or 100 mM stock solutions in DMSO and then diluted into ND96 on the day of the experiment. Odorants were prepared as 100 mM stock solutions in DMSO and then diluted into ND96. Unless otherwise noted, applications were for 60 sec at a flow rate of 1.0 ml/min, with extensive washing in ND96 at 4.6 ml/min between applications. Micropipettes were filled with 3 M KCl and had resistances of 0.2–2.0 MΩ. The holding potential was -70 mV. Current responses, filtered (4-pole, Bessel, low pass) at 20 Hz (-3 db) and sampled at 100 Hz, were captured and stored using OpusXpress 1.1 software (Molecular Devices).\nTo screen for agonist activity, oocytes were exposed to 30 sec applications of candidate compounds with 5 min washes between applications ( Figure 2A). For the concentration-response protocol ( Table 1), applications were for 20 sec at a flow rate of 1.65 ml/min. […]\nInitial analysis of electrophysiological data was done using Clampfit 9.1 software (Molecular Devices). […] Statistical significance (p<0.05) was assessed using a two-tailed unpaired t test, an F test, or a one-way analysis of variance followed by the Dunnett's post-test, as appropriate.", "note": "Like-named read-outs stand apart in the source and are kept apart here.", "data": [{"smiles": "NCCc1c[nH]c2ccccc12", "note": "[tryptamine]", "values": [{"measurement": "mechanism of inhibition of OLC12 activation", "setting": "Agam\\Orco+Agam\\Or65, 20µM vs 100µM OLC12", "result": "competitively inhibits OLC12 activation"}, {"measurement": "IC50", "setting": "activated by 20µM OLC12", "result": "2.9 ± 0.5", "unit": "µM"}, {"measurement": "IC50", "setting": "activated by 100µM OLC12", "result": "8.5 ± 1.1", "unit": "µM"}]}]}
